According to BindingDB's records for patent WO2022098806 (MERCK SHARP & DOHME LLC, 2022):
Several values for one entry are separate records, joined by “and”; a condition that tells them apart may be missing. Equal values may be shown once.

Target: Mitogen-activated protein kinase kinase kinase kinase 1 (Homo sapiens, UniProt Q92918)
Assay: HPK1-SLP76 TR-FRET ASSAY

Sequence of Mitogen-activated protein kinase kinase kinase kinase 1 (Q92918 whole entry): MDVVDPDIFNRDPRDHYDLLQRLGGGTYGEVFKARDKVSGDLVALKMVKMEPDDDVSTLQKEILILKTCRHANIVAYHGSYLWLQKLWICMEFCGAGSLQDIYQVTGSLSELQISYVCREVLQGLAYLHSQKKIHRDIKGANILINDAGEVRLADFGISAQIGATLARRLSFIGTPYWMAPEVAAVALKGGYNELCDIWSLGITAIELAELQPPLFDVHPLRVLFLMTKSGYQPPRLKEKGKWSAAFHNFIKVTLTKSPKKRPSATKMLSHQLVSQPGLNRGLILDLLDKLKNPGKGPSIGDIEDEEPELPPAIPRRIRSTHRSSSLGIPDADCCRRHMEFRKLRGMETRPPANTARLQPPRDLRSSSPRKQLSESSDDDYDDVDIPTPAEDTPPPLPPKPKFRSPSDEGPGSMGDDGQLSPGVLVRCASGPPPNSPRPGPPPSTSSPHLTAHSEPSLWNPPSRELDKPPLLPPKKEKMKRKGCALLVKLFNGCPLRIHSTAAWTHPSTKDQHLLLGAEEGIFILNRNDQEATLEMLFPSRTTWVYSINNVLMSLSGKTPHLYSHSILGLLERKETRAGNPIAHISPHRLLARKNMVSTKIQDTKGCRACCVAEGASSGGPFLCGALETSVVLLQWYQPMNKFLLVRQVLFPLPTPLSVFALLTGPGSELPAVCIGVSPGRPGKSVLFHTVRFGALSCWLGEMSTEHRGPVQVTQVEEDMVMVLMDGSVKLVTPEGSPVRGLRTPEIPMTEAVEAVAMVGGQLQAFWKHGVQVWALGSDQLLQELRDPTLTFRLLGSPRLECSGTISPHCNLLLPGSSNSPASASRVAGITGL

Row | Compound | IC50
1 | Cc1c(-c2cc3nc(Nc4cnc5c(c4)CN(C)CC5)ncc3c(N)c2F)cnc2c1NCCO2 [WO2022098806, Compound 2-183] | 0.04 nM
2 | Cc1c(-c2cc3nc(Nc4ccc(CC(N)=O)cc4)ncc3cc2F)cnc2c1NCCO2 [WO2022098806, Compound 1-131] | 0.16 nM
3 | Cc1c(-c2cc3nc(Nc4cc5c(cc4F)CCN(C)C5)ncc3c(N)c2F)cnc2c1NCCO2 [WO2022098806, Compound 2-59] | 0.05 nM
4 | Cc1c(-c2c(F)c(N)c3cnc(Nc4ccc5c(c4)CN(C)CC54CC4)nc3c2C#N)cnc2c1NCCO2 [WO2022098806, Compound 2-109] | 0.05 nM
5 | Cc1c(-c2cc3nc(Nc4ccc5c(c4)CN(C)CC5)ncc3c(N)c2F)cnc2c1NCC(C)(C)O2 [WO2022098806, Compound 2-166] | 0.06 nM
6 | Cc1c(-c2c(F)c(N)c3cnc(Nc4ccc5c(c4)CN(C)CC5)nc3c2Cl)cnc2c1NCCO2 [WO2022098806, Compound 2-180] | 0.06 nM and 0.02 nM
7 | COc1cc2c(cc1Nc1ncc3ccc(Oc4ccc5c(c4)CNCC5)cc3n1)CN(C)CC2 [WO2022098806, Compound 4-9] | 2.19 nM
8 | COc1cc2c(cc1Nc1ncc3ccc(Nc4cccc(S(C)(=O)=O)c4)cc3n1)CN(C)CC2 [WO2022098806, Compound 3-33] | 18 nM
9 | CNC(=O)[C@@H]1CCc2cc(Nc3ncc4cc(F)c(-c5cnc6c(c5C)NCCO6)cc4n3)ccc21 [WO2022098806, Compound 1-118] | 0.04 nM
10 | COc1cc2c(cc1Nc1ncc3ccc(Nc4cccc(CO)c4)cc3n1)CN(C)CC2 [WO2022098806, Compound 3-31] | 29 nM
11 | Cc1c(-c2cc3nc(Nc4ccc5c(c4)CCS(=O)(=O)C5)ncc3c(N)c2F)cnc2c1NCCO2 [WO2022098806, Compound 2-138] | 0.07 nM
12 | COc1cc2c(cc1Nc1ncc3ccc(N4CC(CO)OC4=O)cc3n1)CN(C)CC2 (centres undefined) [WO2022098806, Compound 3-4] | 9.36 nM
13 | COc1cc2c(cc1Nc1ncc3ccc(-c4cnn(C(F)F)c4)cc3n1)CN(C)CC2 [WO2022098806, Compound 1-26] | 11 nM
14 | COc1cc2c(cc1Nc1ncc3ccc(NCC4(C)CCC4)cc3n1)CN(C)CC2 [WO2022098806, Compound 3-62] | 111 nM
15 | COc1cc2c(cc1Nc1ncc3ccc(-c4cncc(NS(C)(=O)=O)c4)cc3n1)CNCC2 [WO2022098806, Compound 1-36] | 183 nM
16 | Cc1c(-c2cc3nc(Nc4ccc([C@H]5CCN(C)C5=O)cc4)ncc3cc2F)cnc2c1NCCO2 [WO2022098806, Compound 1-127] | 0.95 nM
17 | Cc1c(-c2cc3nc(Nc4ccc5c(c4)CN(C)CC5)ncc3cc2F)cnc2c1NCCO2 [WO2022098806, Compound 1-114] | 0.09 nM
18 | COc1cc2c(cc1Nc1ncc3ccc(N4CC(C)(CO)OC4=O)cc3n1)CN(C)CC2 (centres undefined) [WO2022098806, Compound 3-7] | 45 nM
19 | COc1cc2c(cc1Nc1ncc3ccc(Oc4ccc(C(=O)N5CCN(C(C)=O)CC5)cc4)cc3n1)CN(C)CC2 [WO2022098806, Compound 4-7] | 224 nM
20 | COc1cc2c(cc1Nc1ncc3ccc(Nc4nc(S(C)(=O)=O)ccc4F)cc3n1)CN(C)CC2 [WO2022098806, Compound 3-36] | 4.18 nM
21 | COc1cc2c(cc1Nc1ncc3ccc(Nc4cccc(CO)n4)cc3n1)CN(C)CC2 [WO2022098806, Compound 3-29] | 21 nM
22 | CC(=O)N1CCC[C@H]1c1ccc(Nc2ncc3c(N)c(F)c(-c4cnc5c(c4C)NCCO5)cc3n2)cc1 [WO2022098806, Compound 2-29] | 0.27 nM

Row | Compound | IC50
23 | Cc1c(-c2cc3nc(Nc4ccc(CC(=O)N(C)C)cc4)ncc3cc2F)cnc2c1NCCO2 [WO2022098806, Compound 1-132] | 0.13 nM
24 | Cc1c(-c2cc3nc(Nc4ccc([C@@H]5CCN(C)C5=O)cc4)ncc3c(N)c2F)cnc2c1NCCO2 [WO2022098806, Compound 2-146] | 0.05 nM
25 | COc1cc2c(cc1Nc1ncc3ccc(N4CCCC(CN5CCCC5=O)C4)cc3n1)CN(C)CC2 (centres undefined) [WO2022098806, Compound 3-20] | 771 nM
26 | CN1CCc2ccc(Nc3ncc4c(N)c(F)c(-c5cncc6[nH]ccc56)cc4n3)cc2C1 [WO2022098806, Compound 2-139] | 0.04 nM
27 | CNC(=O)Cc1ccc(Nc2ncc3cc(F)c(-c4cnc5c(c4C)NCCO5)cc3n2)cc1 [WO2022098806, Compound 1-130] | 0.07 nM
28 | CC(=O)N1CCCc2cc(Nc3ncc4c(N)c(F)c(-c5cnc6c(c5C)NCCO6)cc4n3)ccc21 [WO2022098806, Compound 2-7] | 0.11 nM
29 | CCS(=O)(=O)Cc1ccc(Nc2ncc3ccc(-c4cnc5c(c4C)NCCO5)cc3n2)cc1 [WO2022098806, Compound 1-134] | 0.04 nM
30 | CNC(=O)c1ccc(Nc2ncc3c(N)c(F)c(-c4cnc5c(c4C)NCCO5)c(Cl)c3n2)c(OC)c1 [WO2022098806, Compound 2-98] | 6.73 nM
31 | Cc1c(-c2ccc3cnc(Nc4ccc(CS(=O)(=O)C(C)C)cc4)nc3c2)cnc2c1NCCO2 [WO2022098806, Compound 1-129] | 0.09 nM
32 | Cc1c(-c2cc3nc(Nc4ccc5c(c4)CN(C)CC5)ncc3c(N)c2F)cnc2nc[nH]c12 [WO2022098806, Compound 2-162] | 0.13 nM
33 | CNC(=O)C1(c2ccc(Nc3ncc4c(N)c(F)c(-c5cnc6c(c5C)NCCO6)cc4n3)cc2)CCCCC1 [WO2022098806, Compound 2-80] | 0.07 nM
34 | COc1cc2c(cc1Nc1ncc3ccc(-c4cnccc4Cl)cc3n1)CNCC2 [WO2022098806, Compound 1-37] | 28 nM
35 | Cc1c(-c2cc3nc(Nc4ccc(CS(=O)(=O)C(C)C)cc4)ncc3cc2F)cnc2c1NCCO2 [WO2022098806, Compound 1-128] | 0.08 nM
36 | CNC(=O)C1(c2ccc(Nc3ncc4c(N)c(F)c(-c5cnc6c(c5C)NCCO6)cc4n3)cc2)CCC1 [WO2022098806, Compound 2-82] | 0.03 nM
37 | Cc1c(-c2cc3nc(Nc4ccc5c(c4)CNCCC5)ncc3c(N)c2F)cnc2c1NCCO2 [WO2022098806, Compound 2-120] | 0.01 nM
38 | Cc1c(-c2cc3nc(Nc4ccc5c(c4)CN(C)CC5)ncc3c(N)c2F)cnc2cc[nH]c12 [WO2022098806, Compound 2-130] | 0.1 nM
39 | CNC(=O)C1(c2ccc(Nc3ncc4cc(F)c(-c5cnc6c(c5C)NCCO6)cc4n3)cc2)CCC1 [WO2022098806, Compound 1-121] | 0.26 nM
40 | COc1cc2c(cc1Nc1ncc3c(N)c(F)c(-c4cnc5ncsc5c4)cc3n1)CN(C)CC2 [WO2022098806, Compound 2-47] | 25 nM
41 | Cc1c(-c2cc3nc(Nc4ccc5c(c4)C4CCC5N4C)ncc3c(N)c2F)cnc2c1NCCO2 (centres undefined) [WO2022098806, Compound 2-121] | 0.02 nM
42 | COc1cc2c(cc1Nc1ncc3c(N)c(F)c(-c4cc5oc(=O)[nH]c5cc4C)cc3n1)CN(C)CC2 [WO2022098806, Compound 2-49] | 10 nM
43 | Cc1c(-c2cc3nc(Nc4ccc5c(c4)CN(C)CC54CC4)ncc3c(N)c2F)cnc2c1NCCO2 [WO2022098806, Compound 2-151] | 0.05 nM and 0.27 nM

Second part, the compound after the results:

Row | IC50 | Compound
44 | 0.03 nM | Cc1c(-c2cc3nc(Nc4ccc5c(c4)CCN(C)C5)ncc3c(N)c2F)cnc2c1NCCO2 [WO2022098806, Compound 2-158]
45 | 0.91 nM | COc1cc([C@H]2CCN(C)C2=O)ccc1Nc1ncc2c(N)c(F)c(-c3cnc4c(c3C)NCCO4)cc2n1 [WO2022098806, Compound 2-57]
46 | 0.08 nM | Cc1c(-c2cc3nc(Nc4cccc(S(C)(=O)=O)c4)ncc3c(N)c2F)cnc2c1NCCO2 [WO2022098806, Compound 2-14]
47 | 17 nM | COc1cc(C2CC2)ccc1Nc1ncc2c(N)c(F)c(-c3cnc4c(c3C)NCCO4)cc2n1 [WO2022098806, Compound 2-176]
48 | 0.27 nM | CNC(=O)c1ccc(Nc2ncc3c(N)c(F)c(-c4cnc5c(c4C)NCCO5)cc3n2)c(OC)c1 [WO2022098806, Compound 2-74]
49 | 0.15 nM | COc1cc2c(cc1Nc1ncc3c(N)c(F)c(-c4cnc5c(c4C)NCCO5)cc3n1)[C@@H](C)N(C)CC2 [WO2022098806, Compound 2-35]
50 | 0.09 nM | COc1cc2c(cc1Nc1ncc3c(N)c(F)c(-c4cnc5c(c4C)NCCO5)cc3n1)CN(C)CC2 [WO2022098806, Compound 2-2]
51 | 0.13 nM | CCc1ccc(Nc2ncc3c(N)c(F)c(-c4cnc5c(c4C)NCCO5)cc3n2)cn1 [WO2022098806, Compound 2-173]
52 | 0.1 nM and 0.45 nM and 0.09 nM | CCS(=O)(=O)Cc1ccc(Nc2ncc3c(N)c(F)c(-c4cnc5c(c4C)NCCO5)cc3n2)c(F)c1 [WO2022098806, Compound 2-125]
53 | 0.1 nM | COc1cc2c(cc1Nc1ncc3c(N)c(F)c(-c4cnc5c(c4C)NCCO5)cc3n1)[C@H](C)N(C)CC2 [WO2022098806, Compound 2-36]
54 | 0.08 nM | CNC(=O)C(C)(C)c1ccc(Nc2ncc3c(N)c(F)c(-c4cnc5c(c4C)NCCO5)cc3n2)cc1 [WO2022098806, Compound 2-187]
55 | 0.25 nM | COc1ccccc1Nc1ncc2c(N)c(F)c(-c3cnc4c(c3C)NCCO4)cc2n1 [WO2022098806, Compound 2-71]
56 | 0.33 nM | COc1cc2c(cc1Nc1ncc3c(N)c(F)c(-c4cnc5c(c4C)NCCO5)cc3n1)CN(C)CC2(C)C [WO2022098806, Compound 2-75]
57 | 0.09 nM | Cc1c(-c2cc3nc(Nc4ccc([C@@H](C)S(C)(=O)=O)cc4)ncc3c(N)c2F)cnc2c1NCCO2 [WO2022098806, Compound 2-63]
58 | 0.09 nM | Cc1c(-c2cc3nc(Nc4ccc(CC(C)(C)O)cc4)ncc3c(N)c2F)cnc2c1NCCO2 [WO2022098806, Compound 2-178]
59 | 0.14 nM | CNC(=O)C(F)(F)c1ccc(Nc2ncc3c(N)c(F)c(-c4cnc5c(c4C)NCCO5)cc3n2)cc1 [WO2022098806, Compound 2-186]
60 | 0.12 nM | CNS(=O)(=O)c1cccc(Nc2ncc3c(N)c(F)c(-c4cnc5c(c4C)NCCO5)cc3n2)c1 [WO2022098806, Compound 2-34]
61 | 0.08 nM | Cc1c(-c2cc3nc(Nc4ccc5c(c4)CCS5(=O)=O)ncc3c(N)c2F)cnc2c1NCCO2 [WO2022098806, Compound 2-43]
62 | 0.09 nM | Cc1c(-c2cc3nc(Nc4ccc(NS(C)(=O)=O)cc4)ncc3c(N)c2F)cnc2c1NCCO2 [WO2022098806, Compound 2-16]
63 | 0.04 nM | CNC(=O)C1(c2ccc(Nc3ncc4c(N)c(F)c(-c5cnc6c(c5C)NCCO6)cc4n3)cc2)CC1 [WO2022098806, Compound 2-81]
64 | 0.05 nM | CNC(=O)c1ccc(Nc2ncc3c(N)c(F)c(-c4cnc5c(c4C)NCCO5)cc3n2)cc1 [WO2022098806, Compound 2-23]
